Measured values from patent publication US20260001928A1 (CORTERIA PHARMACEUTICALS, priority 2022, published 2026).
*1 amine or outer side, *2 acyl side, *3 side chain or, on linkers, in order; H or OH if unused. Where a SMILES comes first, the peptide text is derived from it. Side-chain parts run from the residue outwards. [ ]: non-standard residue; d: D form. The star is where a group is joined. C20 diacid = O=C(O)CCCCCCCCCCCCCCCCCCC(=O)*; C18 diacid = O=C(O)CCCCCCCCCCCCCCCCC(=O)*; C16 diacid = O=C(O)CCCCCCCCCCCCCCC(=O)*; γGlu = O=C(O)[C@H](CCC(=O)[*:2])N[*:1]; C14 diacid = O=C(O)CCCCCCCCCCCCC(=O)*; NMeI = CC[C@H](C)[C@H](NC)C(=O)O; αMeL = CC(C)C[C@](C)(N)C(=O)O; Lauroyl = CCCCCCCCCCCC(=O)*; Nva = CCC[C@H](N)C(=O)O; AEEA = NCCOCCOCC(=O)O; Aib = CC(C)(N)C(=O)O

Experiments:
[1] = target: T1, human CRF2a receptor (Homo sapiens, UniProt Q13324); assay: Activity at human CRF2a receptor, cAMP functional assay in TeloHEAC cells; format: cell-based; details: TeloHEAC cells stably expressing human CRF2a receptor, relative to urocortin 2 (100 nM = 100%)
T1 construct: expressed in transfected cells; host or cells: TeloHEAC cells
T1 sequence (Q13324 1-411): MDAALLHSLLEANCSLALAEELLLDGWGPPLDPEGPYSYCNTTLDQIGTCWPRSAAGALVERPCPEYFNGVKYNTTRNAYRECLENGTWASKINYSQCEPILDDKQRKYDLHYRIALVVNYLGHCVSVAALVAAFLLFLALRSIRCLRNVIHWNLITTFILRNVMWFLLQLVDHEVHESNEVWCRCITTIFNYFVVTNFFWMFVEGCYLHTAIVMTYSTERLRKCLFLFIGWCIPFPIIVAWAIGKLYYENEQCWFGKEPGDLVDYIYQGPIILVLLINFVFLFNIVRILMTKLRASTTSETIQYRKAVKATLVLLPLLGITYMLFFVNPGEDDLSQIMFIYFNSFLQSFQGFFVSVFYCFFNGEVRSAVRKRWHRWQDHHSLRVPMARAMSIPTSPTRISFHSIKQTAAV
Outline: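 cAMP accumulation was measured by HTRF 665/620 nm ratio after 30 min at 37° C compound exposure (16 twofold dilutions) of CRF2a-expressing TeloHEAC cells, 10000/well, in HEPES-buffered HBSS plus IBMX. Activity was normalised to urocortin 2 at 100 nM (100%), and EC50 was the concentration giving half-maximal activation.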

[2] = target: T2, CFR1R receptor (Homo sapiens, UniProt P34998); assay: Activity at anti-target CFR1R receptor, cAMP assay in CRF1R-overexpression CHO-K1 cells; format: cell-based; details: 100% = Sauvagine at 100 nM; for EC50: cAMP
T2 construct: host or cells: CHO-K1 (clone 2)
T2 sequence (P34998 24-415): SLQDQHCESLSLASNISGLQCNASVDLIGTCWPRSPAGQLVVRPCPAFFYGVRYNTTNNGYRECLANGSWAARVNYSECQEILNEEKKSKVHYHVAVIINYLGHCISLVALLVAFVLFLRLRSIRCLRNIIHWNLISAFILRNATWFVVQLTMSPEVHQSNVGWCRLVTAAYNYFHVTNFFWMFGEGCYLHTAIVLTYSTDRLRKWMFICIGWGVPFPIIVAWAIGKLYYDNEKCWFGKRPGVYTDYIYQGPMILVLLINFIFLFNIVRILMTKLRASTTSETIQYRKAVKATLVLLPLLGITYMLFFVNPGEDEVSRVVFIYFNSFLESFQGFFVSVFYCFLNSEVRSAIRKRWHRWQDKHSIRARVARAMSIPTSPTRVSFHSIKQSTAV
Outline: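 Run as for the TeloHAEC line, except the full-activation control well received Sauvagine (100 nM) and final density was 4000 cells/well. Cells from clone 2 came from frozen aliquots of near-confluent cultures.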

Question: How did the EC50 [1] turn out when `CC[C@H](C)[C@H](NC)C(=O)N[C@H](C(=O)N[C@@H](CC(C)C)C(=O)N[C@@H](CO)C(=O)N[C@@H](CC(C)C)C(=O)N[C@@H](CC(=O)O)C(=O)N[C@@H](C(=O)N1CCC[C@H]1C(=O)N[C@H](C(=O)N[C@@H](CCCCN)C(=O)N[C@@](C)(CC(C)C)C(=O)N[C@@H](CCCCNC(=O)COCCOCCNC(=O)COCCOCCNC(=O)CC[C@H](NC(=O)CCCCCCCCCCCCCCCCC(=O)O)C(=O)O)C(=O)N[C@@H](CCCCN)C(=O)N[C@H](C(=O)N[C@@H](CC(C)C)C(=O)N[C@@H](CC(C)C)C(=O)N[C@@H](CCC(=O)O)C(=O)N[C@@H](CCC(N)=O)C(=O)N[C@@H](CCC(=O)O)C(=O)N[C@@H](CCCCN)C(=O)N[C@@H](CCC(N)=O)C(=O)N[C@@H](CCCCN)C(=O)N[C@@H](CCCCN)C(=O)N[C@@H](CCC(N)=O)C(=O)N[C@@H](CCCNC(=N)N)C(=O)N[C@@H](CCC(=O)O)C(=O)N[C@@H](CCC(N)=O)C(=O)N[C@@H](C)C(=O)N[C@@H](CCC(=O)O)C(=O)N[C@H](C(=O)N[C@@H](CC(N)=O)C(=O)NC(C)(C)C(=O)N[C@@H](CCC(N)=O)C(=O)N[C@H](C(=O)N[C@@H](CC(C)C)C(=O)N[C@@H](C)C(=O)N[C@@H](CCC(N)=O)C(=O)N[C@H](C(N)=O)C(C)C)[C@@H](C)CC)[C@@H](C)O)[C@@H](C)CC)[C@@H](C)CC)C(C)C)C(C)C` [compound 119] (H-[NMeI]VLSLD[dV]PIK[αMeL]K([AEEA-AEEA-γGlu-C18 diacid])KILLEQEKQKKQREQAETN[Aib]QILAQV-NH2) was run?
Answer: 1.62 nM

Question: And the “Emax (% I)” value [2]?
Answer: 5 % I

Question: And the EC50 [2]?
Answer: > 250 nM

Question: Which EC50 [1] does the source give for `CCC[C@H](NC(=O)[C@H](CC(N)=O)NC(=O)[C@@H](NC(=O)[C@H](CCC(=O)O)NC(=O)[C@H](C)NC(=O)[C@H](CCC(N)=O)NC(=O)[C@H](CCC(=O)O)NC(=O)[C@H](CCCNC(=N)N)NC(=O)[C@H](CCC(N)=O)NC(=O)[C@H](CCCCN)NC(=O)[C@H](CCCCN)NC(=O)[C@H](CCC(N)=O)NC(=O)[C@H](CCCCN)NC(=O)[C@H](CCC(=O)O)NC(=O)[C@H](CCC(N)=O)NC(=O)[C@H](CCC(=O)O)NC(=O)[C@H](CC(C)C)NC(=O)[C@H](CC(C)C)NC(=O)[C@@H](NC(=O)[C@H](CCCCN)NC(=O)[C@H](CCCCNC(=O)COCCOCCNC(=O)COCCOCCNC(=O)CC[C@H](NC(=O)CCCCCCCCCCCCCCCCC(=O)O)C(=O)O)NC(=O)[C@H](CC(C)C)NC(=O)[C@H](CCCCN)NC(=O)[C@@H](NC(=O)[C@@H]1CCCN1C(=O)[C@H](NC(=O)[C@H](CC(=O)O)NC(=O)[C@H](CC(C)C)NC(=O)[C@H](CO)NC(=O)[C@H](CC(C)C)NC(=O)[C@@H](NC(=O)[C@@H](NC(C)=O)[C@@H](C)CC)C(C)C)C(C)C)[C@@H](C)CC)[C@@H](C)CC)[C@@H](C)O)C(=O)N[C@@H](CCC(N)=O)C(=O)N[C@H](C(=O)N[C@@H](CC(C)C)C(=O)N[C@@H](C)C(=O)N[C@@H](CCC(N)=O)C(=O)N[C@H](C(N)=O)C(C)C)[C@@H](C)CC` [compound 105] (Ac-IVLSLD[dV]PIKLK([AEEA-AEEA-γGlu-C18 diacid])KILLEQEKQKKQREQAETN[Nva]QILAQV-NH2) here?
Answer: 0.87 nM

Question: What about the “Emax (% I)” value [2] of the same compound?
Answer: 10 % I

Question: And the EC50 [2]?
Answer: > 250 nM

Question: For `CC[C@H](C)[C@H](NC)C(=O)N[C@H](C(=O)N[C@@H](CC(C)C)C(=O)N[C@@H](CO)C(=O)N[C@@H](CC(C)C)C(=O)N[C@@H](CC(=O)O)C(=O)N[C@@H](C(=O)N1CCC[C@H]1C(=O)N[C@H](C(=O)N[C@@H](CCCCN)C(=O)N[C@@H](CC(C)C)C(=O)N[C@@H](CCCCNC(=O)CC[C@H](NC(=O)CCCCCCCCCCCCC(=O)O)C(=O)O)C(=O)N[C@@H](CCCCN)C(=O)N[C@H](C(=O)N[C@@H](CC(C)C)C(=O)N[C@@H](CC(C)C)C(=O)N[C@@H](CCC(=O)O)C(=O)N[C@@H](CCC(N)=O)C(=O)N[C@@H](CCC(=O)O)C(=O)N[C@@H](CCCCN)C(=O)N[C@@H](CCC(N)=O)C(=O)N[C@@H](CCCCN)C(=O)N[C@@H](C)C(=O)N[C@@H](CCC(N)=O)C(=O)N[C@@H](CCCNC(=N)N)C(=O)N[C@@H](CCC(=O)O)C(=O)N[C@@H](CCC(N)=O)C(=O)N[C@@H](C)C(=O)N[C@@H](CCC(=O)O)C(=O)N[C@H](C(=O)N[C@@H](CC(N)=O)C(=O)NC(C)(C)C(=O)N[C@@H](CCC(N)=O)C(=O)N[C@H](C(=O)N[C@@H](CC(C)C)C(=O)N[C@@H](C)C(=O)N[C@@H](CCC(N)=O)C(=O)N[C@H](C(N)=O)C(C)C)[C@@H](C)CC)[C@@H](C)O)[C@@H](C)CC)[C@@H](C)CC)C(C)C)C(C)C` [compound 176] (H-[NMeI]VLSLD[dV]PIKLK([γGlu-C14 diacid])KILLEQEKQKAQREQAETN[Aib]QILAQV-NH2), which EC50 [1] is on record?
Answer: 0.99 nM

Question: What about the “Emax (% I)” value [2] of the same compound?
Answer: 8 % I

Question: And the EC50 [2]?
Answer: > 250 nM

Question: With `CC[C@H](C)[C@H](NC(C)=O)C(=O)N[C@H](C(=O)N[C@@H](CC(C)C)C(=O)N[C@@H](CO)C(=O)N[C@@H](CC(C)C)C(=O)N[C@@H](CC(=O)O)C(=O)N[C@H](C(=O)N1CCC[C@H]1C(=O)N[C@H](C(=O)N[C@@H](CCCCN)C(=O)N[C@@](C)(CC(C)C)C(=O)N[C@@H](CCCCNC(=O)CC[C@H](NC(=O)CCCCCCCCCCCCCCC(=O)O)C(=O)O)C(=O)N[C@@H](CCCCN)C(=O)N[C@H](C(=O)N[C@@H](CC(C)C)C(=O)N[C@@H](CC(C)C)C(=O)N[C@@H](CCC(=O)O)C(=O)N[C@@H](CCC(N)=O)C(=O)N[C@@H](CCC(=O)O)C(=O)N[C@@H](CCCCN)C(=O)N[C@@H](CCC(N)=O)C(=O)N[C@@H](CCCCN)C(=O)N[C@@H](CCCCN)C(=O)N[C@@H](CCC(N)=O)C(=O)N[C@@H](CCCNC(=N)N)C(=O)N[C@@H](CCC(=O)O)C(=O)N[C@@H](CCC(N)=O)C(=O)N[C@@H](C)C(=O)N[C@@H](CCC(=O)O)C(=O)N[C@H](C(=O)N[C@@H](CC(N)=O)C(=O)N[C@H](C(=O)N[C@@H](CCC(N)=O)C(=O)N[C@H](C(=O)N[C@@H](CC(C)C)C(=O)N[C@@H](C)C(=O)N[C@@H](CCC(N)=O)C(=O)N[C@H](C(N)=O)C(C)C)[C@@H](C)CC)C(C)C)[C@@H](C)O)[C@@H](C)CC)[C@@H](C)CC)C(C)C)C(C)C` [compound 49] (Ac-IVLSLDVPIK[αMeL]K([γGlu-C16 diacid])KILLEQEKQKKQREQAETNVQILAQV-NH2) as the compound, how does the EC50 [1] read?
Answer: 0.92 nM

Question: What about the “Emax (% I)” value [2] of the same compound?
Answer: −3 % I

Question: What about the EC50 [2] of the same compound?
Answer: > 250 nM

Question: Which results are given for `CCCCCCCCCCCC(=O)N[C@H](C(=O)N[C@@H](CC(C)C)C(=O)N[C@@H](CO)C(=O)N[C@@H](CC(C)C)C(=O)N[C@@H](CC(=O)O)C(=O)N[C@@H](C(=O)N1CCC[C@H]1C(=O)N[C@H](C(=O)N[C@@H](CCCCN)C(=O)N[C@@H](CC(C)C)C(=O)N[C@@H](CCCCNC(=O)CC[C@H](NC(=O)CCCCCCCCCCCCCCCCCCC(=O)O)C(=O)O)C(=O)N[C@@H](CCCCN)C(=O)N[C@H](C(=O)N[C@@H](CC(C)C)C(=O)N[C@@H](CC(C)C)C(=O)N[C@@H](CCC(=O)O)C(=O)N[C@@H](CCC(N)=O)C(=O)N[C@@H](CCC(=O)O)C(=O)N[C@@H](CCCCN)C(=O)N[C@@H](CCC(N)=O)C(=O)N[C@@H](CCCCN)C(=O)N[C@@H](CCCCN)C(=O)N[C@@H](CCC(N)=O)C(=O)N[C@@H](CCCNC(=N)N)C(=O)N[C@@H](CCC(=O)O)C(=O)N[C@@H](CCC(N)=O)C(=O)N[C@@H](C)C(=O)N[C@@H](CCC(=O)O)C(=O)N[C@H](C(=O)N[C@@H](CC(N)=O)C(=O)NC(C)(C)C(=O)N[C@@H](CCC(N)=O)C(=O)N[C@H](C(=O)N[C@@H](CC(C)C)C(=O)N[C@@H](C)C(=O)N[C@@H](CCC(N)=O)C(=O)N[C@H](C(N)=O)C(C)C)[C@@H](C)CC)[C@@H](C)O)[C@@H](C)CC)[C@@H](C)CC)C(C)C)C(C)C` [compound 224] (Lauroyl-VLSLD[dV]PIKLK([γGlu-C20 diacid])KILLEQEKQKKQREQAETN[Aib]QILAQV-NH2)?
Answer: EC50 [1]: 0.07 nM; Emax (% I) [2]: 66 % I
